Values after ≈ are worked out from the molar mass of the structure shown.
Tests used:
Type in all cases: functional
[1] = test system: Fusarium oxysporum f. sp. cucumerinum; assay: Antifungal activity against Fusarium oxysporum f. sp. cucumerinum on potato sucrose agar medium at 28 or 20 degC for 2 or 3 days
Colletotrichum lagenaria = assay: Antifungal activity against Colletotrichum lagenaria on potato sucrose agar medium at 28 or 20 degC for 2 or 3 days
Triticum aestivum = assay: Inhibition of Triticum aestivum (wheat) Nourin 64 growth assessed as first leaf sheath length of seedlings measured as growth rate at 125 ug/ml for 24 hr relative to control; parameters: scale not given: the % may be the effect or the level left
Fusarium fujikuroi = assay: Antifungal activity against Fusarium fujikuroi on potato sucrose agar medium at 28 or 20 degC for 2 or 3 days
Rhizoctonia solani = assay: Antifungal activity against Rhizoctonia solani on potato sucrose agar medium at 28 or 20 degC for 2 or 3 days
Alternaria mali = assay: Antifungal activity against Alternaria mali on potato sucrose agar medium at 28 or 20 degC for 2 or 3 days
Botrytis cinerea = assay: Antifungal activity against Botryotinia fuckeliana on potato sucrose agar medium at 28 or 20 degC for 2 or 3 days
Bipolaris oryzae = assay: Antifungal activity against Bipolaris oryzae on potato sucrose agar medium at 28 or 20 degC for 2 or 3 days
Cercospora beticola = assay: Antifungal activity against Cercospora beticola on potato sucrose agar medium at 28 or 20 degC for 2 or 3 days
Pyricularia oryzae = assay: Antifungal activity against Magnaporthe oryzae on potato sucrose agar medium at 28 or 20 degC for 2 or 3 days
Monilinia fructicola = assay: Antifungal activity against Monilinia fructicola on potato sucrose agar medium at 28 or 20 degC for 2 or 3 days
Cucumis sativus = assay: Inhibition of Cucumis sativus (cucumber) growth assessed as stem length of first leaf of seedlings measured as growth rate at 125 ug/ml for 24 hr relative to control; parameters: scale not given: the % may be the effect or the level left
[2] = test system: Colletotrichum gloeosporioides; assay: Antifungal activity against Glomerella cingulata on potato sucrose agar medium at 28 or 20 degC for 2 or 3 days
Sclerotinia sclerotiorum = assay: Antifungal activity against Sclerotinia sclerotiorum on potato sucrose agar medium at 28 or 20 degC for 2 or 3 days

Structure (SMILES) | MIC [1] [µg/mL] | MIC (Colletotrichum lagenaria) [µg/mL] | Activity (Triticum aestivum) [%] | MIC (Fusarium fujikuroi) [µg/mL] | MIC (Rhizoctonia solani) [µg/mL] | MIC (Alternaria mali) [µg/mL] | MIC (Botrytis cinerea) [µg/mL] | MIC (Bipolaris oryzae) [µg/mL] | MIC (Cercospora beticola) [µg/mL] | MIC (Pyricularia oryzae) [µg/mL] | MIC (Monilinia fructicola) [µg/mL] | Activity (Cucumis sativus) [%] | MIC [2] [µg/mL] | MIC (Sclerotinia sclerotiorum) [µg/mL]
CC(C)[C@@H]1CC[C@H](Cc2ccc(Cl)cc2)[C@@]1(O)Cn1cncn1 | 3.1 (≈ 9.29 µM) | 0.8 (≈ 2.4 µM) | 105 | 0.2 (≈ 0.599 µM) | 13 (≈ 38.9 µM) | 6.3 (≈ 18.9 µM) | 0.2 (≈ 0.599 µM) | 13 (≈ 38.9 µM) | 25 (≈ 74.9 µM) | 3.1 (≈ 9.29 µM) | < 0.2 | 118 | 1.6 (≈ 4.79 µM) | < 0.2
CC(C)[C@H]1CC[C@H](Cc2ccc(Cl)cc2)[C@@]1(O)Cn1cncn1 | 0.4 (≈ 1.2 µM) | < 0.2 | 96 | 0.2 (≈ 0.599 µM) | 100 (≈ 300 µM) | 3.1 (≈ 9.29 µM) | 0.4 (≈ 1.2 µM) | 13 (≈ 38.9 µM) | 13 (≈ 38.9 µM) | 1.6 (≈ 4.79 µM) | < 0.2 | 113 | 0.4 (≈ 1.2 µM) | 0.8 (≈ 2.4 µM)
CC(C)[C@H]1CC[C@@H](Cc2ccc(Cl)cc2)[C@]1(O)Cn1cncn1 | > 100 | > 100 | 109 | > 100 | 100 (≈ 300 µM) | > 100 | 25 (≈ 74.9 µM) | 50 (≈ 150 µM) | > 100 | 100 (≈ 300 µM) | < 0.2 | 117 | 25 (≈ 74.9 µM) | 50 (≈ 150 µM)
CC(C)[C@@H]1CC[C@@H](Cc2ccc(Cl)cc2)[C@]1(O)Cn1cncn1 | > 100 | 50 (≈ 150 µM) | 92 | > 100 | > 100 | > 100 | 25 (≈ 74.9 µM) | 50 (≈ 150 µM) | > 100 | 13 (≈ 38.9 µM) | < 0.2 | 104 | 25 (≈ 74.9 µM) | > 100
C[C@@H]1CC[C@H](Cc2ccc(Cl)cc2)[C@@]1(O)Cn1cncn1 | > 100 | 100 (≈ 327 µM) | 38 | 3.1 (≈ 10.1 µM) | > 100 | > 100 | 3.1 (≈ 10.1 µM) | 25 (≈ 81.8 µM) | > 100 | 3.1 (≈ 10.1 µM) | < 0.2 | 43 | 13 (≈ 42.5 µM) | 3.1 (≈ 10.1 µM)
CC[C@H]1CC[C@@H](Cc2ccc(Cl)cc2)[C@]1(O)Cn1cncn1 | > 100 | 50 (≈ 156 µM) | 77 | > 100 | 100 (≈ 313 µM) | > 100 | 25 (≈ 78.2 µM) | 50 (≈ 156 µM) | > 100 | 25 (≈ 78.2 µM) | 1.6 (≈ 5 µM) | 98 | 25 (≈ 78.2 µM) | 100 (≈ 313 µM)
CC[C@@H]1CC[C@H](Cc2ccc(Cl)cc2)[C@@]1(O)Cn1cncn1 | 6.3 (≈ 19.7 µM) | 1.6 (≈ 5 µM) | 104 | < 0.2 | 100 (≈ 313 µM) | 25 (≈ 78.2 µM) | 0.8 (≈ 2.5 µM) | 25 (≈ 78.2 µM) | 50 (≈ 156 µM) | 3.1 (≈ 9.69 µM) | < 0.2 | 100 | 0.4 (≈ 1.25 µM) | 0.8 (≈ 2.5 µM)
CC[C@@H]1CC[C@@H](Cc2ccc(Cl)cc2)[C@]1(O)Cn1cncn1 | > 100 | 100 (≈ 313 µM) | 69 | 25 (≈ 78.2 µM) | 100 (≈ 313 µM) | 100 (≈ 313 µM) | 13 (≈ 40.6 µM) | 25 (≈ 78.2 µM) | 50 (≈ 156 µM) | 13 (≈ 40.6 µM) | 0.4 (≈ 1.25 µM) | 110 | 13 (≈ 40.6 µM) | 25 (≈ 78.2 µM)
CC[C@H]1CC[C@H](Cc2ccc(Cl)cc2)[C@@]1(O)Cn1cncn1 | 1.6 (≈ 5 µM) | 3.1 (≈ 9.69 µM) | 100 | < 0.2 | 50 (≈ 156 µM) | 1.6 (≈ 5 µM) | < 0.2 | 6.3 (≈ 19.7 µM) | 1.6 (≈ 5 µM) | 1.6 (≈ 5 µM) | < 0.2 | 123 | < 0.2 | < 0.2
CCC[C@H]1CC[C@@H](Cc2ccc(Cl)cc2)[C@]1(O)Cn1cncn1 | > 100 | > 100 | 97 | > 100 | 100 (≈ 300 µM) | > 100 | 50 (≈ 150 µM) | 100 (≈ 300 µM) | > 100 | 50 (≈ 150 µM) | 13 (≈ 38.9 µM) | 104 | > 100 | > 100
CCC[C@@H]1CC[C@H](Cc2ccc(Cl)cc2)[C@@]1(O)Cn1cncn1 | 6.3 (≈ 18.9 µM) | 50 (≈ 150 µM) | 102 | 1.6 (≈ 4.79 µM) | 100 (≈ 300 µM) | > 100 | 1.6 (≈ 4.79 µM) | 25 (≈ 74.9 µM) | 100 (≈ 300 µM) | 6.3 (≈ 18.9 µM) | 0.4 (≈ 1.2 µM) | 110 | 3.1 (≈ 9.29 µM) | 3.1 (≈ 9.29 µM)
CCCC[C@H]1CC[C@@H](Cc2ccc(Cl)cc2)[C@]1(O)Cn1cncn1 | > 100 | > 100 | 112 | > 100 | 100 (≈ 287 µM) | > 100 | > 100 | > 100 | > 100 | 25 (≈ 71.9 µM) | 50 (≈ 144 µM) | 117 | > 100 | > 100
CCCC[C@@H]1CC[C@H](Cc2ccc(Cl)cc2)[C@@]1(O)Cn1cncn1 | 50 (≈ 144 µM) | > 100 | 98 | 3.1 (≈ 8.91 µM) | 100 (≈ 287 µM) | > 100 | 3.1 (≈ 8.91 µM) | 25 (≈ 71.9 µM) | > 100 | 6.3 (≈ 18.1 µM) | 6.3 (≈ 18.1 µM) | 121 | 6.3 (≈ 18.1 µM) | 3.1 (≈ 8.91 µM)
CC(C)C[C@H]1CC[C@@H](Cc2ccc(Cl)cc2)[C@]1(O)Cn1cncn1 | > 100 | > 100 | 115 | > 100 | > 100 | > 100 | > 100 | > 100 | > 100 | 100 (≈ 287 µM) | > 100 | 104 | > 100 | > 100
CC(C)C[C@@H]1CC[C@H](Cc2ccc(Cl)cc2)[C@@]1(O)Cn1cncn1 | > 100 | 100 (≈ 287 µM) | 112 | 3.1 (≈ 8.91 µM) | > 100 | > 100 | 1.6 (≈ 4.6 µM) | 50 (≈ 144 µM) | > 100 | 6.3 (≈ 18.1 µM) | 3.1 (≈ 8.91 µM) | 109 | 3.1 (≈ 8.91 µM) | 3.1 (≈ 8.91 µM)

Reference: ChEMBL document CHEMBL3045771, “Structure-Activity Relationships of Enantiomers of the Azole Fungicide Ipconazole and Its Related Compounds” (1998)
